Assay results reported in ChEMBL document CHEMBL1129149, “Synthesis and biological evaluation of 4-alkoxysubstituted trinems. Part II” (1996).
Values after ≈ are worked out from the molar mass of the structure shown.

What was measured:
Type in all cases: functional
[1] = system: Escherichia coli; assay: In vitro antibacterial activity against Escherichia coli 1919E beta-lactamase producing strain and compared to imipenem
[2] = system: Enterococcus faecalis; assay: In vitro antibacterial activity against […] 850 strain and compared to imipenem
[3] = system: Escherichia coli; assay: In vitro antibacterial activity against Escherichia coli 1850E strain and compared to imipenem
[4] = system: Staphylococcus aureus; assay: In vitro antibacterial activity against Staphylococcus aureus 853E beta-lactamase producing strain and compared to imipenem,
[5] = system: Staphylococcus aureus; assay: In vitro antibacterial activity against Staphylococcus aureus 663E strain and compared to imipenem
[6] = system: Pseudomonas aeruginosa; assay: In vitro antibacterial activity against Pseudomonas aeruginosa 1911E strain and compared to imipenem
[7] = system: Clostridium perfringens; assay: In vitro antibacterial activity against Clostridium perfringens 615E strain and compared to imipenem

## C[C@@H](O)[C@H]1C(=O)N2C(C(=O)[O-])=C3[C@@H](OCCN)CCC[C@@H]3[C@H]12.[Na+]
[1]
  MIC: 0.5 µg/mL
[2]
  MIC: 8 µg/mL
[3]
  MIC: 0.5 µg/mL
[4]
  MIC: 0.5 µg/mL
[5]
  MIC: 0.5 µg/mL
[6]
  MIC: 8 µg/mL
[7]
  MIC: 120 µg/mL

## C[C@@H](O)[C@H]1C(=O)N2C(C(=O)[O-])=C3[C@@H](OCCCO)CCC[C@@H]3[C@H]12.[Na+]
[1]
  MIC: 1 µg/mL
[2]
  MIC: 8 µg/mL
[3]
  MIC: 2 µg/mL
[4]
  MIC: 0.5 µg/mL
[5]
  MIC: 0.2 µg/mL
[6]
  MIC: > 32 µg/mL
[7]
  MIC: 30 µg/mL

## C[C@@H](O)[C@H]1C(=O)N2C(C(=O)[O-])=C3[C@@H](OCCN=[N+]=[N-])CCC[C@@H]3[C@H]12.[Na+]
[1]
  MIC: 1 µg/mL
[2]
  MIC: 4 µg/mL
[3]
  MIC: 8 µg/mL
[4]
  MIC: 0.5 µg/mL
[5]
  MIC: 0.25 µg/mL
[6]
  MIC: > 32 µg/mL
[7]
  MIC: 30 µg/mL

## C[C@@H](O)[C@H]1C(=O)N2C(C(=O)[O-])=C3[C@@H](OCCCN=[N+]=[N-])CCC[C@@H]3[C@H]12.[Na+]
[1]
  MIC: 1 µg/mL
[2]
  MIC: 8 µg/mL
[3]
  MIC: 8 µg/mL
[4]
  MIC: 0.5 µg/mL
[5]
  MIC: 0.2 µg/mL
[6]
  MIC: > 32 µg/mL
[7]
  MIC: 60 µg/mL

## C[C@@H](O)[C@H]1C(=O)N2C(C(=O)O)=C(SCCNC=N)C[C@H]12 [IMIPENEM ANHYDROUS]
[1]
  MIC: 0.5 µg/mL (≈ 1.67 µM)
[2]
  MIC: 2 µg/mL (≈ 6.68 µM)
[3]
  MIC: 0.5 µg/mL (≈ 1.67 µM)
[4]
  MIC: 0.12 µg/mL (≈ 0.401 µM)
[5]
  MIC: 0.12 µg/mL (≈ 0.401 µM)
[6]
  MIC: 4 µg/mL (≈ 13.4 µM)
[7]
  MIC: 30 µg/mL (≈ 100 µM)

## C[C@@H](O)[C@H]1C(=O)N2C(C(=O)[O-])=C3[C@@H](OCC/N=C/N)CCC[C@@H]3[C@H]12.[Na+]
[1]
  MIC: 1 µg/mL
[2]
  MIC: 2 µg/mL
[3]
  MIC: 1 µg/mL
[4]
  MIC: 0.5 µg/mL
[5]
  MIC: 0.25 µg/mL
[6]
  MIC: 32 µg/mL
[7]
  MIC: 120 µg/mL

## C/C(N)=N\CCO[C@H]1CCC[C@H]2C1=C(C(=O)[O-])N1C(=O)[C@H]([C@@H](C)O)[C@@H]21.[Na+]
[1]
  MIC: 0.5 µg/mL
[2]
  MIC: 16 µg/mL
[3]
  MIC: 1 µg/mL
[4]
  MIC: 2 µg/mL
[5]
  MIC: 1 µg/mL
[6]
  MIC: 32 µg/mL
[7]
  MIC: 120 µg/mL

## C[C@@H](O)[C@H]1C(=O)N2C(C(=O)[O-])=C3[C@@H](OCCCN)CCC[C@@H]3[C@H]12.[Na+]
[1]
  MIC: 0.5 µg/mL
[2]
  MIC: 4 µg/mL
[3]
  MIC: 0.5 µg/mL
[4]
  MIC: 0.2 µg/mL
[5]
  MIC: 0.2 µg/mL
[6]
  MIC: 16 µg/mL
[7]
  MIC: 60 µg/mL
